# Measurements as given in patent US8835466B2, “Synthesis and uses of pyroglutamic acid derivatives” (Prodimed, S.A., priority 2006, dated 2014).
# How the values were obtained:
# [1] = tested on: Lewis lung cells (lung cell carcinoma); assay: Effect of 9d in combination with Cisplatin on tumour growth, Lewis lung (Example 13); assay type: in vivo, C57BL/6J mice; settings: for SURFACE Overall values (Mean) / SURFACE Overall values (Median) / VOLUME Overall values (Mean) / VOLUME Overall values (Median): Cisplatin 65 μg, or both
# Text: This assay was made in order to check the effect on in vivo tumour growth in mice challenged with Lewis lung cells. Their effect will be compared with the combination of chemotherapeutic agents plus 9d and/or placebo. Lewis Lung is a lung cell carcinoma originated in C57BL/6J mice strain, and therefore syngeneic in mice with C57BL/6J genetic background (Rodrigo Garzón M, Tirapu Fernández de la Cuesta […], Noel […] and […]. Use of Gene Therapy in a Subcutaneous Murine Model of Lung Cancer. Arch Bronconeumology. 42: 526-532; 2006). Lewis lung cells (CLS, Eppelheim, Germany) were maintained in vitro by serial passages every 3-4 days. […] Louis, Mo., USA) by seeding 5×10^6 cells onto 75 cm^2 culture flasks. Subcultures were carried out by collecting detached cells after treatment with trypsin-EDTA (Sigma, St. Louis, Mo., USA). Tumour cells, collected from 48 hour cultures, were used as source of Lewis Lung cells for the studies described below. […] Tumours were established by subcutaneous inoculation in the right hind flank. Mice were inoculated with 0.2 mL containing 2×10^5 viable cells. The day of subcutaneous inoculation will be considered Day 0 of the test. Mice were observed daily and the tumour size recorded twice a week. This was carried out by measuring two perpendicular diameters (d1/d2) with a calliper. These measures were used to obtain both tumour surface and volume: […] Results were expressed as single values and/or as the mean±SD or median from each experimental group. A case-control study was performed with treated and control mice in order to determine whether differences between placebo, 9d, Cisplatin or 9d+Cisplatin were present. The data obtained (tumour surface and volume) were tested for Normal distribution within the groups (Kolmogorov Smirnov test p<0.05). […] The U-test of Mann Withney was chosen for being one of the better known non-parametrical tests, anyway, results for this test are equivalent both to those of Wilcoxon's sum of ranges and Kruskal-Wallis two-groups test. We excluded of the study animals that have undetectable or unscored tumour on 31th day after tumour inoculation. Due to the high dispersion of data, outlayers were excluded of the study.
# [2] = tested on: KLN 205 cells (lung cell carcinoma); assay: Effect of 9d in combination with Cisplatin on tumour growth, KLN 205 (Example 11); assay type: in vivo, DBA/2 mice; settings: for Tumour surface, overall values (Mean) / Tumour surface, overall values (Median) / Tumour volume, overall values (Mean) / Tumour volume, overall values (Median): Cisplatin 65 μg i.p. days 3, 6, 10, 13, 17, 20
# Description: This was carried out by measuring two perpendicular diameters (d1/d2) with a calliper. These measures were used to obtain both tumour surface and volume: […] Results were expressed as single values and/or as the mean±SD or median from each experimental group. This assay was made in order to check the effect on in vivo tumour growth in mice challenged with KLN 205 cells. Their effect was compared with the combination of Cisplatin plus 9d and/or placebo. KLN 205 is a lung cell carcinoma originated in DBA/2 mouse strain, and therefore syngeneic in mice with DBA/2 genetic background (Kaneko T and […]. Growth characteristics and drug responses of a murine lung carcinoma in vitro and in vivo. Cancer Res. 38: 2084-2090; 1978). KLN 205 cells (CLS, Eppelheim, Germany) were maintained in vitro by serial passages every 3-4 days. […] Louis, Mo., USA) by seeding 5×10^6 cells onto 75 cm^2 culture flasks. Subcultures were carried out by collecting detached cells after treatment with trypsin-EDTA (Sigma, St. Louis, Mo., USA). Tumour cells, collected from 48 hour cultures, were used as source of KLN 205 cells for the studies described below. […] Tumours were established by subcutaneous inoculation in the right hind flank. Mice (DBA/2) were inoculated with 0.2 mL containing 2×10^5 viable KLN 205 cells. The day of subcutaneous inoculation will be considered Day 0 of the test. A case-control study was performed with treated and control mice in order to determine whether differences between placebo, 9d, Cisplatin or 9d+Cisplatin were present. […] The t-test was chosen for being one of the better known parametrical tests.
# [3] = 9d 250 ng, Cisplatin 65 μg i.p.
# [4] = 9d 250 ng, day 0 after tumour inoculation
# [5] = 9d 250 ng, day 10 after tumour inoculation
# [6] = 9d 250 ng, day 13 after tumour inoculation
# [7] = 9d 250 ng, day 17 after tumour inoculation
# [8] = 9d 250 ng, day 20 after tumour inoculation
# [9] = 9d 250 ng, day 24 after tumour inoculation
# [10] = 9d 250 ng, day 27 after tumour inoculation
# [11] = 9d 250 ng, day 31 after tumour inoculation
# [12] = day 0 after tumour inoculation, 9d 250 ng
# [13] = day 10 after tumour inoculation, 9d 250 ng
# [14] = day 13 after tumour inoculation, 9d 250 ng
# [15] = day 17 after tumour inoculation, 9d 250 ng
# [16] = day 20 after tumour inoculation, 9d 250 ng
# [17] = day 24 after tumour inoculation, 9d 250 ng
# [18] = day 27 after tumour inoculation, 9d 250 ng
# [19] = day 31 after tumour inoculation, 9d 250 ng
# [20] = day 34 after tumour inoculation, 9d 250 ng
# [21] = day 38 after tumour inoculation, 9d 250 ng
smiles,measurement,setting,value
"N.N.[Cl][Pt][Cl] [Cisplatin, reference compound]","Inhibition of the in vivo growth of Lewis lung tumour in inbred mice, in words",[1]; [3],inhibit the in vivo growth
same,SURFACE Overall values (Mean),[1]; [4],0 mm^2
same,SURFACE Overall values (Median),[1]; [4],0 mm^2
same,VOLUME Overall values (Mean),[1]; [4],0 mm^3
same,VOLUME Overall values (Median),[1]; [4],0 mm^3
same,SURFACE Overall values (Mean),[1]; [5],2.4 mm^2
same,SURFACE Overall values (Median),[1]; [5],0 mm^2
same,VOLUME Overall values (Mean),[1]; [5],3.27 mm^3
same,VOLUME Overall values (Median),[1]; [5],0 mm^3
same,SURFACE Overall values (Mean),[1]; [6],6.73 mm^2
same,SURFACE Overall values (Median),[1]; [6],4 mm^2
same,VOLUME Overall values (Mean),[1]; [6],11.23 mm^3
same,VOLUME Overall values (Median),[1]; [6],4 mm^3
same,SURFACE Overall values (Mean),[1]; [7],20.73 mm^2
same,SURFACE Overall values (Median),[1]; [7],25 mm^2
same,VOLUME Overall values (Mean),[1]; [7],49.97 mm^3
same,VOLUME Overall values (Median),[1]; [7],56 mm^3
same,SURFACE Overall values (Mean),[1]; [8],58.33 mm^2
same,SURFACE Overall values (Median),[1]; [8],49 mm^2
same,VOLUME Overall values (Mean),[1]; [8],269.1 mm^3
same,VOLUME Overall values (Median),[1]; [8],171.5 mm^3
same,SURFACE Overall values (Mean),[1]; [9],106.07 mm^2
same,SURFACE Overall values (Median),[1]; [9],90 mm^2
same,VOLUME Overall values (Mean),[1]; [9],619.43 mm^3
same,VOLUME Overall values (Median),[1]; [9],405 mm^3
same,SURFACE Overall values (Mean),[1]; [10],160.07 mm^2
same,SURFACE Overall values (Median),[1]; [10],120 mm^2
same,VOLUME Overall values (Mean),[1]; [10],1076.9 mm^3
same,VOLUME Overall values (Median),[1]; [10],600 mm^3
same,SURFACE Overall values (Mean),[1]; [11],204.93 mm^2
same,SURFACE Overall values (Median),[1]; [11],169 mm^2
same,VOLUME Overall values (Mean),[1]; [11],1530.4 mm^3
same,VOLUME Overall values (Median),[1]; [11],1080 mm^3
same,"Differences in Lewis Lung tumour growth rate vs. placebo, statistical significance p (Mann-Whitney U test)","[1]; either in surface or volume, days 10th, 13th and 17 th",< 0.05
same,"Inhibition of the in vivo growth of KLN 205 cell, in words",[2]; [3],inhibit the in vivo growth
same,"Tumour surface, overall values (Mean)",[2]; [12],0 mm^2
same,"Tumour surface, overall values (Median)",[2]; [12],0 mm^2
same,"Tumour volume, overall values (Mean)",[2]; [12],0 mm^3
same,"Tumour volume, overall values (Median)",[2]; [12],0 mm^3
same,"Tumour surface, overall values (Mean)",[2]; [13],4.07 mm^2
same,"Tumour surface, overall values (Median)",[2]; [13],4 mm^2
same,"Tumour volume, overall values (Mean)",[2]; [13],5.1 mm^3
same,"Tumour volume, overall values (Median)",[2]; [13],4 mm^3
same,"Tumour surface, overall values (Mean)",[2]; [14],14.87 mm^2
same,"Tumour surface, overall values (Median)",[2]; [14],16 mm^2
same,"Tumour volume, overall values (Mean)",[2]; [14],31.77 mm^3
same,"Tumour volume, overall values (Median)",[2]; [14],32 mm^3
same,"Tumour surface, overall values (Mean)",[2]; [15],23.93 mm^2
same,"Tumour surface, overall values (Median)",[2]; [15],20 mm^2
same,"Tumour volume, overall values (Mean)",[2]; [15],59.1 mm^3
same,"Tumour volume, overall values (Median)",[2]; [15],40 mm^3
same,"Tumour surface, overall values (Mean)",[2]; [16],39.07 mm^2
same,"Tumour surface, overall values (Median)",[2]; [16],36 mm^2
same,"Tumour volume, overall values (Mean)",[2]; [16],119.07 mm^3
same,"Tumour volume, overall values (Median)",[2]; [16],108 mm^3
same,"Tumour surface, overall values (Mean)",[2]; [17],72.2 mm^2
same,"Tumour surface, overall values (Median)",[2]; [17],72 mm^2
same,"Tumour volume, overall values (Mean)",[2]; [17],285.43 mm^3
same,"Tumour volume, overall values (Median)",[2]; [17],288 mm^3
same,"Tumour surface, overall values (Mean)",[2]; [18],97.07 mm^2
same,"Tumour surface, overall values (Median)",[2]; [18],99 mm^2
same,"Tumour volume, overall values (Mean)",[2]; [18],445.8 mm^3
same,"Tumour volume, overall values (Median)",[2]; [18],445.5 mm^3
same,"Tumour surface, overall values (Mean)",[2]; [19],124.67 mm^2
same,"Tumour surface, overall values (Median)",[2]; [19],120 mm^2
same,"Tumour volume, overall values (Mean)",[2]; [19],637.07 mm^3
same,"Tumour volume, overall values (Median)",[2]; [19],600 mm^3
same,"Tumour surface, overall values (Mean)",[2]; [20],147.93 mm^2
same,"Tumour surface, overall values (Median)",[2]; [20],150 mm^2
same,"Tumour volume, overall values (Mean)",[2]; [20],809.03 mm^3
same,"Tumour volume, overall values (Median)",[2]; [20],800 mm^3
same,"Tumour surface, overall values (Mean)",[2]; [21],185.33 mm^2
same,"Tumour surface, overall values (Median)",[2]; [21],198 mm^2
same,"Tumour volume, overall values (Mean)",[2]; [21],1129.9 mm^3
same,"Tumour volume, overall values (Median)",[2]; [21],1089 mm^3
same,"Differences in KLN 205 tumour growth rate vs. placebo, statistical significance p (t-test)","[2]; either in surface or volume, all days scored after day 20th",< 0.05
